Values quoted from earlier work as cited in patent US20250325549A1, “ORAL TABLET COMPOSITION OF RUXOLITINIB AND METHOD FOR PREPARING SAME” (SAMYANG HOLDINGS CORPORATION, priority 2021, published 2025).

Details: Shi et al., J. Clin. Pharmacol. 2012

- half-life: approximately 3 hours
SMILES: N#CC[C@H](C1CCCC1)n1cc(-c2ncnc3[nH]ccc23)cn1 [Ruxolitinib, (3R)-3-cyclopentyl-3-[4-(7H-pyrrolo[2,3-d]pyrimidin-4-yl)pyrazol-1-yl]propanenitrile]
